System: HT29 human colon tumour cells
Experiment: Cell proliferation assay
Type: cell-based
Settings: HT-29, 72 hours incubation
Procedure: Cell Proliferation Assays
Cells were seeded into multi-well plates at 20 000-40 000 cells/ml in growth medium containing 5% FCS and incubated overnight at 37° C. The compounds were prepared in fresh medium at an appropriate concentration and added to the wells containing the cells. These were then incubated for a further 72 hours. Cells were then either removed from the wells by incubating with trypsin/EDTA and counted using a Coulter counter, or treated with XTT/PMS in PBSA and optical densities read at 450 nm. […] For example, Compound No 3 gave an IC50 of 1.0 μM in HT29 human colon tumour cells.

- IC50: 1000 nM
Compound: COc1cc2ncc(C#N)c(Nc3ccc(Oc4ccccc4OCC(=O)NCC(=O)N4CCN(C)CC4)cc3)c2cc1OC [Compound 3]

Reference: US7504416B2, “4-substituted quinolines as antitumor agents” (AstraZeneca AB, priority 2000, dated 2009)
